Activity calls are given as the source filed them. No rule for the calls is given here.
Tested on: CCRIS mutagenicity, Ames/micronucleus/aberration tests
Assay: CCRIS mutagenicity studies
Settings: Test System: AMES SALMONELLA TYPHIMURIUM, Method: PREINCUBATION

SMILES: Clc1cccc(C(Cl)(Cl)Cl)n1
- mutagenic call (Strain/Indicator: TA97, Metabolic Activation: HAMSTER, LIVER, S-9, AROCLOR 1254 (10%)): inactive; negative
- mutagenic call (Strain/Indicator: TA97, Metabolic Activation: NONE): inactive; negative
- mutagenic call (Strain/Indicator: TA97, Metabolic Activation: RAT, LIVER, S-9, AROCLOR 1254 (10%)): inactive; negative
- mutagenic call (Strain/Indicator: TA98, Metabolic Activation: HAMSTER, LIVER, S-9, AROCLOR 1254 (5%)): inactive; negative
- mutagenic call (Strain/Indicator: TA98, Metabolic Activation: HAMSTER, LIVER, S-9, AROCLOR 1254 (10%)): active; positive
- mutagenic call (Strain/Indicator: TA98, Metabolic Activation: HAMSTER, LIVER, S-9, AROCLOR 1254 (30%)): active; positive
- mutagenic call (Strain/Indicator: TA98, Metabolic Activation: NONE): inactive; negative
- mutagenic call (Strain/Indicator: TA98, Metabolic Activation: RAT, LIVER, S-9, AROCLOR 1254 (5%)): inactive; negative
- mutagenic call (Strain/Indicator: TA98, Metabolic Activation: RAT, LIVER, S-9, AROCLOR 1254 (10%)): active; positive
- mutagenic call (Strain/Indicator: TA98, Metabolic Activation: RAT, LIVER, S-9, AROCLOR 1254 (30%)): active; positive
- mutagenic call (Strain/Indicator: TA100, Metabolic Activation: HAMSTER, LIVER, S-9, AROCLOR 1254 (5 OR 10%)): inactive; negative
- mutagenic call (Strain/Indicator: TA100, Metabolic Activation: HAMSTER, LIVER, S-9, AROCLOR 1254 (30%)): active; positive
- mutagenic call (Strain/Indicator: TA100, Metabolic Activation: NONE): inactive; negative
- mutagenic call (Strain/Indicator: TA100, Metabolic Activation: RAT, LIVER, S-9, AROCLOR 1254 (5 OR 10%)): inactive; negative
- mutagenic call (Strain/Indicator: TA100, Metabolic Activation: RAT, LIVER, S-9, AROCLOR 1254 (30%)): inactive; negative
- mutagenic call (Strain/Indicator: TA1535, Metabolic Activation: HAMSTER, LIVER, S-9, AROCLOR 1254 (10%)): inactive; negative
- mutagenic call (Strain/Indicator: TA1535, Metabolic Activation: NONE): inactive; negative
- mutagenic call (Strain/Indicator: TA1535, Metabolic Activation: RAT, LIVER, S-9, AROCLOR 1254 (10%)): inactive; negative

From PubChem BioAssay AID1259407 (Chemical Carcinogenesis Research Information System (CCRIS), 2018)
